Assay [1] addresses Substance-P receptor (Homo sapiens, UniProt P25103). Kind of assay: Inhibitory activity against human tachykinin receptor 1.
Assay [2] deals with T1, Substance-K receptor (Homo sapiens, UniProt P21452).
T1 sequence (P21452 whole entry): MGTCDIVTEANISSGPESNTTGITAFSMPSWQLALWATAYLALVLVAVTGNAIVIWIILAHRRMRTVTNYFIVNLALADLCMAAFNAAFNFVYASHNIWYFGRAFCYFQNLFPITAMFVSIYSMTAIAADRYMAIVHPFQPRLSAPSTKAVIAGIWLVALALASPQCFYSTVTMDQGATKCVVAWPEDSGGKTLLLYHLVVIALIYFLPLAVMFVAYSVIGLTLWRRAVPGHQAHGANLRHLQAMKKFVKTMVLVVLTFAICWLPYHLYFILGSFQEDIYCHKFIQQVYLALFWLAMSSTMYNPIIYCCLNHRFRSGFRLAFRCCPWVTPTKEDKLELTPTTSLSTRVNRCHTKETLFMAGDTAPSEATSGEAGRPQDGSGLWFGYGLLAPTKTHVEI
The assay is described as follows: Inhibitory activity against human tachykinin receptor 2.

By Ki is commonly meant the equilibrium dissociation constant of an inhibitor or competing ligand from its target.

Some results are limits rather than exact numbers.

Substance-P receptor, sequence (P25103 whole entry): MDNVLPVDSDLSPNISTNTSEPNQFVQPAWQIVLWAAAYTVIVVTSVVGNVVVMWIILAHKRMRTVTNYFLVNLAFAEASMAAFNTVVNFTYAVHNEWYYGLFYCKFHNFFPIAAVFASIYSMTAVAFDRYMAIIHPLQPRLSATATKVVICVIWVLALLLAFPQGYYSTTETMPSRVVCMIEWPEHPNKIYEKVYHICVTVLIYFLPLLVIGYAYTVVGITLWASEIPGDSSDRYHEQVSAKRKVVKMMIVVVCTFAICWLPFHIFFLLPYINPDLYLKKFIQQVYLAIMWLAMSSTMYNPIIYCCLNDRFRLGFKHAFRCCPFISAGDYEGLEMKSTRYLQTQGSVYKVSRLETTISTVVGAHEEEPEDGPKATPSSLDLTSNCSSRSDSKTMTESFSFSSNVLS

Regarding `CO/N=C(\COCc1cc(C(F)(F)F)cc(C(F)(F)F)c1)C(CCN1CCN(CC(=O)N2CCCCC2CO)CC1)c1ccc(Cl)c(Cl)c1` (configuration not stated), the Ki in assay [1] was found to be 0.047 µM; in assay [2], 0.052 µM.
For `CO/N=C(\COCc1cc(C(F)(F)F)cc(C(F)(F)F)c1)C(CCN1CCN(CC(=O)NC2CCc3ccccc32)CC1)c1ccc(Cl)c(Cl)c1` (configuration not stated) the same measures were 0.136 µM and greater than 0.68 µM.
For `CO/N=C(\COCc1cc(C(F)(F)F)cc(C(F)(F)F)c1)C(CCN1CCN(c2ccccc2)CC1)c1ccc(Cl)c(Cl)c1` (configuration not stated) the same measures were 0.181 µM and 0.978 µM.
For `CO/N=C(\COCc1cc(C(F)(F)F)cc(C(F)(F)F)c1)C(CCN1CCN(CC(=O)Nc2ccccc2)CC1)c1ccc(Cl)c(Cl)c1` (configuration not stated) the same measures were 0.125 µM and greater than 0.68 µM.
In the case of `CO/N=C(\COCc1cc(C(F)(F)F)cc(C(F)(F)F)c1)C(CCN1CCN(c2ncccn2)CC1)c1ccc(Cl)c(Cl)c1` (configuration not stated), the Ki was found to be 0.07 µM in assay [1] and 0.217 µM in assay [2].
For the compound `CO/N=C(\COCc1cc(C(F)(F)F)cc(C(F)(F)F)c1)C(CCN1CCN(CC(=O)N2CCC(NC(C)=O)C2)CC1)c1ccc(Cl)c(Cl)c1` (configuration not stated), the Ki in assay [1] is 0.009 µM; in assay [2], 0.048 µM.
For `CO/N=C(\COCc1cc(C(F)(F)F)cc(C(F)(F)F)c1)C(CCN1CCN(CC(=O)N2CCC2)CC1)c1ccc(Cl)c(Cl)c1` (configuration not stated) the same measures were 0.023 µM and 0.033 µM.
For the compound `CO/N=C(\COCc1cc(C(F)(F)F)cc(C(F)(F)F)c1)C(CCN1CCN(C)CC1)c1ccc(Cl)c(Cl)c1` (configuration not stated), the Ki in assay [1] was 0.061 µM; in assay [2] it was 0.2 µM.
For `CO/N=C(\COCc1cc(C(F)(F)F)cc(C(F)(F)F)c1)C(CCN1CCN(CC(=O)N2CCCC2)CC1)c1ccc(Cl)c(Cl)c1` (configuration not stated), the Ki in assay [1] amounted to 0.014 µM; in assay [2] it was 0.021 µM.
Take `CO/N=C(\COCc1cc(C(F)(F)F)cc(C(F)(F)F)c1)C(CCN1CCN(CC(=O)N2CCc3ccccc3C2)CC1)c1ccc(Cl)c(Cl)c1` (configuration not stated): the Ki came to 0.125 µM in assay [1] and 0.566 µM in assay [2].
For `CO/N=C(\COCc1cc(C(F)(F)F)cc(C(F)(F)F)c1)C(CCN1CCN(CC(=O)N2CCC(N(C)C)C2)CC1)c1ccc(Cl)c(Cl)c1` (configuration not stated) the same measures were 0.014 µM and 0.095 µM.
For `CO/N=C(\COCc1cc(C(F)(F)F)cc(C(F)(F)F)c1)C(CCN1CCN(CC(=O)N2CCCCC2)CC1)c1ccc(Cl)c(Cl)c1` (configuration not stated) the same measures were 0.082 µM and 0.208 µM.
In the same order, the values of `CO/N=C(\COCc1cc(C(F)(F)F)cc(C(F)(F)F)c1)C(CCN1CCN(CC(=O)N2CCOCC2)CC1)c1ccc(Cl)c(Cl)c1` (configuration not stated) are 0.019 µM and 0.028 µM.
For `CCOC(=O)C1CCN(C(=O)CN2CCN(CCC(/C(COCc3cc(C(F)(F)F)cc(C(F)(F)F)c3)=N/OC)c3ccc(Cl)c(Cl)c3)CC2)CC1` (configuration not stated), the Ki worked out at 0.024 µM in assay [1] and 0.409 µM in assay [2].
In the same order, the values of `CO/N=C(\COCc1cc(C(F)(F)F)cc(C(F)(F)F)c1)C(CCN1CCN(CC(=O)N2CCCC(O)C2)CC1)c1ccc(Cl)c(Cl)c1` (configuration not stated) are 0.013 µM and 0.038 µM.
For `CO/N=C(\COCc1cc(C(F)(F)F)cc(C(F)(F)F)c1)C(CCN1CCN(CC(=O)N2CCC(O)C2)CC1)c1ccc(Cl)c(Cl)c1` (configuration not stated) the same measures were 0.016 µM and 0.03 µM.
In the same order, the values of `CO/N=C(\COCc1cc(C(F)(F)F)cc(C(F)(F)F)c1)C(CCN1CCN(CC(=O)N2CC(O)C2)CC1)c1ccc(Cl)c(Cl)c1` (configuration not stated) are 0.022 µM and 0.031 µM.
As to `CCOCCCNC(=O)CN1CCN(CCC(/C(COCc2cc(C(F)(F)F)cc(C(F)(F)F)c2)=N/OC)c2ccc(Cl)c(Cl)c2)CC1` (configuration not stated), the figures for the inhibition constant Ki in assay [1] and in assay [2] were 0.039 µM and 0.382 µM, respectively.
For `CO/N=C(\COCc1cc(C(F)(F)F)cc(C(F)(F)F)c1)C(CCN1CCN(CC(=O)N(C(C)C)C(C)C)CC1)c1ccc(Cl)c(Cl)c1` (configuration not stated) the same measures were 0.082 µM and 0.17 µM.
With `CO/N=C(\COCc1cc(C(F)(F)F)cc(C(F)(F)F)c1)C(CCN1CCNCC1)c1ccc(Cl)c(Cl)c1` (configuration not stated), the results for the inhibition constant Ki in assay [1] and in assay [2] were 0.03 µM and 0.738 µM, respectively.
Regarding `CO/N=C(\COCc1cc(C(F)(F)F)cc(C(F)(F)F)c1)C(CCN1CCN(CC(=O)N2CCCC3CCCCC32)CC1)c1ccc(Cl)c(Cl)c1` (configuration not stated), the inhibition constant Ki in assay [1] came out at 0.136 µM; in assay [2] it was 0.477 µM.
In the same order, the values of `CO/N=C(\COCc1cc(C(F)(F)F)cc(C(F)(F)F)c1)C(CCN1CCN(CC(=O)N(C)C2CCCCC2)CC1)c1ccc(Cl)c(Cl)c1` (configuration not stated) are 0.113 µM and 0.368 µM.
For `CO/N=C(\COCc1cc(C(F)(F)F)cc(C(F)(F)F)c1)C(CCN1CCN(CC(=O)NC2CC2)CC1)c1ccc(Cl)c(Cl)c1` (configuration not stated) the same measures were 0.062 µM and 0.259 µM.
`CO/N=C(\COCc1cc(C(F)(F)F)cc(C(F)(F)F)c1)C(CCN1CCN(CC(=O)N2CCC[C@H]2C(N)=O)CC1)c1ccc(Cl)c(Cl)c1` (some centres not stated): the values for the inhibition constant Ki in assay [1] and in assay [2] were 0.024 µM and 0.026 µM, respectively.
On to `CO/N=C(\COCc1cc(C(F)(F)F)cc(C(F)(F)F)c1)C(CCN1CCN(CC(=O)NCC2CCCO2)CC1)c1ccc(Cl)c(Cl)c1` (configuration not stated), for which the figures for the Ki in assay [1] and in assay [2] were 0.02 µM and 0.266 µM, respectively.
In the same order, the values of `CO/N=C(\COCc1cc(C(F)(F)F)cc(C(F)(F)F)c1)C(CCN1CCN(C2CCCCC2)CC1)c1ccc(Cl)c(Cl)c1` (configuration not stated) are 0.053 µM and 0.128 µM.

The values are drawn from ChEMBL document CHEMBL1132780, “Synthesis and NK1/NK2 receptor activity of substituted-4(Z)-(methoxyimino)pentyl-1-piperazines” (Bioorg Med Chem Lett, 2000).
